Reference: US4125538A, “Substituted 5-phenyl-2,3,4,5-tetrahydro-1,4-benzoxazepines” (Bristol-Myers Company, priority 1977, dated 1978)
Structures can show the parent of a compound that is named as a salt. Where two headings read alike, the source gives them in different places.

Assays:
[1] = test system: phenylquinone-induced writhing in the mouse; experiment: Phenylquinone-induced writhing test in the mouse; type: in vivo; details: for ED50: Mus musculus; for analgesic activity (in words): mouse, in vivo
Procedure: Compounds of formula I, and homologous and analogous compounds, were tested for analgesic activity by means of the phenylquinone-induced writhing test in the mouse, using the known analgesic, nefopam (5 methyl-1-phenyl-3,4,5,6-tetrahydro-1H-2,5-benzoxazocine), as a comparison standard. The method used was essentially that described by Siegmund et al. [Proc. Soc. exp. Biol. N. Y. 95, 729 (1957)]. Compounds were administered either subcutaneously (15 min) or orally (25 min) prior to the intraperitoneal injection of phenylquinone (2 mg/kg). […] The dose which produced a 50 percent reduction in the number of writhes, as compared to the control group, was called the ED50.
BL-R845 and nefopam were compared in additional phenylquinone-induced writhing tests in the mouse and rat, by various routes of administration.

[2] = test system: cough response in male guinea-pigs; experiment: Antitussive activity in male guinea-pigs (electrically stimulated cough); type: in vivo, guinea-pig; details: for inhibition in vivo at 10 mg/kg: Cavia porcellus, sc, 10 mg./kg. subcutaneously, cough tested at 30, 60 and 120 min, values of 30 or less not significantly different from saline controls, considered inactive or insufficiently active; for antitussive activity (in words): guinea pig, in vivo
Procedure: Compounds of formula I, and homologous and analogous compounds, were also tested for antitussive activity in male guinea-pigs, using a modification of the procedure of Friebel and Hahn [Med. Pharmacol. exp., 14, 78 (1966)]. Under general anesthesia, two stainless steel wires (0.2 mm diameter), stripped of their enamel insulation at the points of contact with the trachea, were wrapped around the trachea about 8 mm apart and then threaded under the skin and out through the back of the neck, one on each side. After 24 hrs, test animals were placed in a clear plastic cage and the cough threshold was determined by means of electrical stimulation. The following stimulation parameters were used: delay -- 0.01 msec, duration -- 0.6 msec and frequency -- 300 Hz. The minimal voltage (range 60-120 V) necessary to elicit a cough in less than 6 sec was determined. Each guinea-pig was stimulated 5 times at 30 sec intervals employing the predrug stimulation parameters at 30, 60 and 120 min following drug administration. A test animal was considered to be protected if more than 6 sec were required to produce a cough. Compounds were administered at a dosage of 10 mg./kg. subcutaneously. The percent inhibition of cough response was calculated as follows: % Inhibition = (A-B)/(A) × 100 a = number of coughs requiring <6 sec. stimulation after saline. B = number of coughs requiring <6 sec. stimulation after drug.

[3] = test system: analgesic activity, naloxone antagonism; experiment: Block of analgesic activity by naloxone; type: in vivo; details: naloxone as antagonist
Text: (§1) The analgesic profile for BL-[…] and nefopam resembles that of the narcotic antagonist analgesics rather than the narcotic drugs. […] Nevertheless,both BL-[…] and nefopam differ from the antagonist action of naloxone. […] These findings indicate that BL-[…] and nefopam act on different receptor sites from those affected by the antagonist analgesics.

rat tail flick = experiment: Rat tail flick (thermal analgesic test); type: in vivo; details: conventional thermal analgesic test
Text: as §1

rodent writhing = experiment: Rodent writhing tests; details: in vivo
Text: as §1, with “BL-[…] and nefopam were compared in additional phenylquinone-induced writhing tests in the mouse and rat, by various routes of administration. The analgesic” for “The analgesic”

mouse hot plate = experiment: Mouse hot plate (thermal analgesic test); type: in vivo; details: conventional thermal analgesic test
Text: as §1

[4] = test system: phenylquinone-induced writhing in the rat; experiment: Phenylquinone-induced writhing test in the rat; type: in vivo; details: Table 4, rats
Text: BL-[…] and nefopam were compared in additional phenylquinone-induced writhing tests in the mouse and rat, by various routes of administration.

cough in dogs = experiment: Antitussive activity in the dog (method of Stefko and Benson); details: for ED50: Canis lupus familiaris
[5] = sc, Table 1, s.c. 15 min before phenylquinone 2 mg/kg i.p., 50 percent reduction in number of writhes vs control, read-out: ED50
[6] = central, Table 4, mice, intraventricular, read-out: Phenylquinone-induced Writhing ED50, mice, intraventricular
[7] = sc, Table 4, mice, subcutaneous, read-out: Phenylquinone-induced Writhing ED50, mice, subcutaneous
[8] = Table 4, mice, oral, read-out: Phenylquinone-induced Writhing ED50, mice, oral
[9] = oral, read-out: Phenylquinone-induced Writhing ED50, rats, oral
[10] = sc, subcutaneous, read-out: Phenylquinone-induced Writhing ED50, rats, subcutaneous
[11] = po, read-out: ED50, antitussive, oral
[12] = sc, read-out: ED50, antitussive, s. c.

Row | SMILES | ED50 [1, 5] [mg/kg] | analgesic activity (in words) [1] | inhibition in vivo at 10 mg/kg [2] [%] | antitussive activity (in words) [2] | ED50 (cough in dogs; [11]) [mg/kg] | ED50 (cough in dogs; [12]) [mg/kg] | also measured
1 | CNCCN1CCOc2ccc(Cl)cc2C1c1ccccc1 (stereo not shown) [BL-5366, 7-Chloro-4-(2-methylaminoethyl)-5-phenyl-2,3,4,5-tetrahydro-1,4,-benzoxazepine dihydrochloride] | 13 | little or no such activity | 0 | little or no such activity | – | – | –
2 | CCN(CC)CCN1CCOc2ccc(Cl)cc2C1c1ccccc1.Cl.Cl (stereo not shown) [BL-5372, 7-Chloro-4-(2-diethylaminoethyl)-5-phenyl-2,3,4,5-tetrahydro-1,4-benzoxazepine dihydrochloride] | 10 | little or no such activity | 0 | little or no such activity | – | – | –
3 | Cl.Cl.Clc1ccc2c(c1)C(c1ccccc1)N(CCN1CCCC1)CCO2 (stereo not shown) [BL-5397, 7-Chloro-4-(2-pyrrolidinoethyl)-5-phenyl-2,3,4,5-tetrahydro-1,4-benzoxazepine dihydrochloride] | 2.5 | valuable analgesic activity | 0 | – | – | – | –
4 | Cl.Cl.Clc1ccc2c(c1)C(c1ccccc1)N(CCN1CCOCC1)CCO2 (stereo not shown) [BL-5405, 7-Chloro-4-(2-morpholinoethyl)-5-phenyl-2,3,4,5-tetrahydro-1,4-benzoxazepine dihydrochloride] | > 40 | – | 30 | – | – | – | –
5 | Cl.Cl.Clc1ccc2c(c1)C(c1ccccc1)N(CCN1CCCCC1)CCO2 (stereo not shown) [BL-5409, 7-Chloro-4-(2-piperidinoethyl)-5-phenyl-2,3,4,5-tetrahydro-1,4-benzoxazepine dihydrochloride] | 9 | – | 0 | – | – | – | –
6 | CN1CCN(CCN2CCOc3ccc(Cl)cc3C2c2ccccc2)CC1.Cl.Cl.Cl (stereo not shown) [BL-5451, 7-Chloro-4-[2-(4-methylpiperazino)ethyl]-5-phenyl-2,3,4,5-tetrahydro-1,4-benzoxazepine trihydrochloride] | 19 | – | 0 | – | – | – | –
7 | CN(C)CCN1CCOc2ccc(Cl)cc2C1c1ccccc1.Cl.Cl (stereo not shown) [BL-R845, 7-Chloro-4-(2-dimethylaminoethyl)-5-phenyl-2,3,4,5-tetrahydro-1,4-benzoxazepine dihydrochloride] | – | effective analgesic | 48 | effective analgesic and antitussive agent | 2 to 5 | 0.2 to 0.5 | effect of naloxone on analgesic activity [3]: does not block the analgesic activity; ED50 [1, 6]: 0.31 mg/kg; ED50 [1, 7]: 1.3 mg/kg; ED50 [1, 8]: 11.6 mg/kg; analgesic activity, rat tail flick (rat tail flick): relative lack of analgesic activity; activity in the rodent writhing tests (rodent writhing): good activity; analgesic activity, mouse hot plate (mouse hot plate): relative lack of analgesic activity; ED50 [4, 9]: 12.8 mg/kg; ED50 [4, 10]: 1 mg/kg; antitussive activity compared with nefopam or codeine (cough in dogs; dog, both routes of administration): more active than nefopam or codeine
8 | COc1ccc2c3c1O[C@H]1[C@@H](O)C=C[C@H]4[C@@H](C2)N(C)CC[C@@]341 [codeine] | – | – | – | – | 7.8 | 1.5 | –
9 | CN1CCOC(c2ccccc2)c2ccccc2C1 (stereo not shown) [nefopam, 5 methyl-1-phenyl-3,4,5,6-tetrahydro-1H-2,5-benzoxazocine, reference compound] | – | – | 0 | – | > 20 | 2 to 5 | effect of naloxone on analgesic activity [3]: does not block the analgesic activity; ED50 [1, 6]: 0.14 mg/kg; ED50 [1, 7]: 1.1 mg/kg; ED50 [1, 8]: 22 mg/kg; analgesic activity, rat tail flick (rat tail flick): relative lack of analgesic activity; activity in the rodent writhing tests (rodent writhing): good activity; analgesic activity, mouse hot plate (mouse hot plate): relative lack of analgesic activity; ED50 [4, 9]: 9.6 mg/kg; ED50 [4, 10]: 1 mg/kg
